# Experimental data reported in patent US20230390250A1, “MODULATION OF GLUCAGON-LIKE PEPTIDE 1 AND USES THEREOF” (priority 2020, published 2023).
# Entries after “also recorded” stand apart in the source; their conditions may differ.
# What was measured:
# GLUTag cells = assay: GLP-1 secretion from cultured GLUTag cells treated with LPA and/or LPAR antagonist; assay type: cell-based, mouse; conditions: 10 μM antagonist plus 2.5 μM LPA
# Protocol: We have grown GLUTag cells in culture to test effects of various LPA species and the LPAR 1/2/3 inhibitor Ki-16425. GLUTag cells are a well characterized L-cell line derived from a mouse intestinal tumour, which have been widely used to study the regulation of GLP-1. Briefly, GLUTag cells were grown until 80-90% confluent. Complete medium, containing fetal bovine serum, was replaced with medium containing charcoal[…] dextran treated serum, which removes lipids and hormones that could interfere with testing. […] This indicates a direct inhibitory effect of LPA at physiologically relevant levels on GLP-1 secretion by L-cells, and the ability of a commercially available LPAR antagonist to prevent this.
# Experimental Protocol. Briefly, GLUTag cells were grown until 70-80% confluent. Complete medium (low glucose DMEM), containing fetal bovine serum, was replaced with medium containing charcoal-dextran treated serum, which removes lipids and hormones that could interfere with testing. Cells were then treated with medium containing either DMSO as vehicle control (0.1% v/v), 2.5 μM LPA, 10 μM LPAR antagonist, or a combination of the LPA species and inhibitors. For cells treated with both LPA plus LPAR inhibitor: cells were pre-treated with LPA for 30 minutes and then 10 uM LPAR inhibitor was added to the respective wells for a further 2 hours. For cells treated with LPA only, or vehicle only, the total treatment time was 2.5 hours. For cells treated with antagonist only, the treatment time was 2 hours.
# GLP-1 [1] = assay: Circulating GLP-1 in mice injected with LPA, with or without LPAR antagonist pre-treatment; assay type: in vivo; conditions: for prevention of LPA-induced decrease in plasma GLP-1: 5 mg/kg i.p. 10 min before 50 mg/kg 1-oleoyl-2-hydroxy-LPA, n=3 (Example 3, FIG. 4)
# Protocol: We injected mice i.p. with vehicle (10% DMSO in isotonic saline) or 50 mg/kg of 1-oleoyl-2-hydroxy-LPA. Half of the mice injected with LPA were pre-injected with 5 mg/kg Ki-16425 10 minutes prior to receiving LPA. Thirty minutes later, samples of blood were taken by cardiac puncture, and circulating active GLP-1 levels in plasma were analysed by enzyme linked immunosorbent assay.
# (§1) The experimental protocol was as follows: • 1. Mice were administered an LPAR antagonist drug, either by oral gavage (for BMS986020, SARI 00842, AM966, AM095, or H2L51863030), or by i.p. injection (for Ki-16425, and LPA2-antagonistl) at the doses indicated in the table below. • 2. Control mice were administered only the vehicle (a 10% DMSO solution) given via the same route as the comparison drug was administered. • 3. Ten minutes later, mice were injected i.p. either with isotonic saline, or with 50 mg/kg LPA. • 4. Thirty minutes later, mice were euthanized by cervical dyslocation, and blood was collected from the heart for preparation of serum that was stored at −80C until it was analyzed for total GLP-1 concentration by ELISA assay using a GLP-1 enzyme immunoassay kit.
# GLP-1 [2] = assay: Blood GLP-1 in RT-SAKO mice (elevated endogenous LPA) treated with Ki-16425; assay type: in vivo; conditions: 30 minutes after injection
# Excerpt: Our laboratory has created a new genetic mouse model to study the isolated effects of obesity on kidney health. This model was not created to test LPA metabolism or to study GLP-1 regulation, but we have made important discoveries on these topics. We have made mice that lack the enzyme adipose triglyceride lipase (ATGL) in renal tubule cells, and have named these mice renal tubule-specific adipose triglyceride lipase knockout (or RT-SAKO) mice. These mice develop fatty kidneys, and as a side effect of changes in kidney cell metabolism, their kidneys make more LPA. As a result, RT-SAKO mice develop elevations in blood lysophosphatidic acid levels by 16-18 weeks of age (FIG. 5, left panel). They also have low circulating levels of GLP-1 (FIG. 5, right panel).
# [3] = Glucose intolerance and insulin secretion in fatty-kidney (RT-SAKO) mice; assay type: in vivo
# DPP4 [4] = assay: DPP4 activity in GLUTag cells (fluorometric kit ab204722); assay type: cell-based, mouse
# Protocol: Briefly, GLUTag cells were grown to produce the recommended quantity needed for the assay according to the manufacturer's protocol (ab204722 Dipeptidyl peptidase IV Activity Assay Kit (Fluorometric)), and then the wells were treated in media containing charcoal-stripped FBS (10%), with either nothing (no treatment control), or vehicle control (0.05% DMSO), or 2.5 uM 18:1-LPA for 30 minutes, and then the inhibitors (as indicated in the graph of FIG. 17) were added to the vehicle wells and the 2.5 uM 18:1-LPA wells at 10 uM concentrations, as indicated on the graph (FIG. 17), for an additional 2 hours. Cells were then harvested according to the manufacturer's protocol, and lysed using reagents from the kit. Charcoal-stripped FBS was used to remove lipids, including LPA, from serum. Experiments were also carried out wherein the FBS was not stripped with charcoal, and the results were not different.
# According to the manufacturer, dipeptidyl peptidase IV (DPP4) Activity Assay Kit (Fluorometric) (ab204722) is an assay where DPP4 cleaves a substrate to release a quenched fluorescent group, AMC (7-Amino-4-Methyl Coumarin), which can be easily detected at Ex/Em=360/460 nm. This assay is rapid, simple, sensitive, and reliable, as well as, suitable for high throughput activity screening of DPP4. This kit detects DPP4 activity as low as 3 ρU per well.
# DPP4 [5] = assay: DPP4 activity in serum of C57BI/6J mice; assay type: in vivo
# Protocol: Mice were injected with 5 mg/kg Ki16425 or control (10% DMSO in isotonic saline), then injected 10 mins later with 50 mg/kg 1-18:1-LPA or saline (vehicle control), then euthanized 30 minutes later for serum collection and analysis.
# as §1, with “(for” for “(for BMS986020,”, “00842” for “00842, AM966, AM095,”, “AM966),” for “H2L51863030),”, “Ki-16425)” for “Ki-16425, and LPA2-antagonistl)”, “18:1-LPA.” for “LPA.”
# insulin secretion = conditions: prior study, Rancoule et al. 2013, cited from earlier work
# LPAR1 = LPAR1 (Homo sapiens, UniProt Q92633); conditions: cited from earlier work
# LPAR2 = LPAR2 (Homo sapiens, UniProt Q9HBW0); conditions: cited from earlier work
# LPAR3 = biological target: T1, LPAR3 (Homo sapiens, UniProt Q9UBY5); conditions: cited from earlier work
# T1 sequence (Q9UBY5 1-353): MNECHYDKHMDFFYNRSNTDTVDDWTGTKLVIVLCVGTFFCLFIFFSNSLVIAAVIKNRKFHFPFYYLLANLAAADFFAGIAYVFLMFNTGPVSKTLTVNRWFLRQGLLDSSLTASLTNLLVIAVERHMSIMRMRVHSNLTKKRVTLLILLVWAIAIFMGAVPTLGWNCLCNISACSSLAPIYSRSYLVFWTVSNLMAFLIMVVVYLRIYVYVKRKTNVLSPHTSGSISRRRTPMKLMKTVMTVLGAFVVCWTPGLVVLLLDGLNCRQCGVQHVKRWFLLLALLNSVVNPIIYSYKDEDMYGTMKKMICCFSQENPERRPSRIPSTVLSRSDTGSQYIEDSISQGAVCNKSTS
# Chain of LPAR2 (Q9HBW0 whole entry, species assumed): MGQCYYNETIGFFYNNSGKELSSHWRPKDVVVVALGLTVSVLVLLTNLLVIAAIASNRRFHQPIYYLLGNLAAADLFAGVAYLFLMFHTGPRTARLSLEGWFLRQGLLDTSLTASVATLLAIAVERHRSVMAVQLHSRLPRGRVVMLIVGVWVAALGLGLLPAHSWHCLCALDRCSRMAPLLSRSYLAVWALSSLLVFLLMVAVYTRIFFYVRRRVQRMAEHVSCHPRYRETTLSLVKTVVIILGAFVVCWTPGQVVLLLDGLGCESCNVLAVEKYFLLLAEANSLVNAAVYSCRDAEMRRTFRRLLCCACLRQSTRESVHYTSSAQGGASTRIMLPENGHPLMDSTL
# Chain of LPAR1 (Q92633 whole entry, species assumed): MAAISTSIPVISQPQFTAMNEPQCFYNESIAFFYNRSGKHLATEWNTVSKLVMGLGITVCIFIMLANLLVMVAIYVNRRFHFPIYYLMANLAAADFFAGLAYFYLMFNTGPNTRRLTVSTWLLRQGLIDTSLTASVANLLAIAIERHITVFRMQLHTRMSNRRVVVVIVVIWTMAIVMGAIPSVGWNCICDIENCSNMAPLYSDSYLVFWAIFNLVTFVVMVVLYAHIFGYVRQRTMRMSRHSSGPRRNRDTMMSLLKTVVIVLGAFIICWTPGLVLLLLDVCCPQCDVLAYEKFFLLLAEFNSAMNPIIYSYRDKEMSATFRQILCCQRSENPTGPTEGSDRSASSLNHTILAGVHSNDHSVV
compound,measurement,setting,value
Cc1noc(-c2ccc(CSCCC(=O)O)cc2)c1NC(=O)OC(C)c1ccccc1Cl (stereo not drawn) [Ki16425],rescue of LPA-inhibited GLP-1 secretion by LPAR antagonist,GLUTag cells,larger effect than the others; also recorded: prevented that decrease
same,rescue of LPA-inhibited GLP-1 secretion by LPAR antagonist,GLUTag cells; listed as Ki-16425,completely prevents this decrease; also recorded: restored
same,prevention of LPA-induced decrease in plasma GLP-1,GLP-1 [1],significantly abrogates
same,prevention of LPA-induced decrease in plasma GLP-1,GLP-1 [1]; listed as Ki-16425,partially restored; also recorded: partially prevented; also recorded: significantly prevented
same,rescue of the fall in blood GLP-1 levels caused by LPA,"GLP-1 [1]; antagonist 5 mg/kg i.p. 10 min before 50 mg/kg 18:1-LPA i.p., serum at 30 min (Examples 6, 8)",completely abrogated; also recorded: Complete rescues; also recorded: restored to normal levels
same,blood GLP-1 with antagonist alone versus vehicles,"GLP-1 [1]; antagonist 5 mg/kg i.p., no LPA",indistinguishable from mice treated only with the vehicles
same,restoration of blood GLP-1 levels in RT-SAKO mice,GLP-1 [2],restores GLP-1 levels; also recorded: come back up to close to normal
same,glucose intolerance and impaired insulin secretion,[3],rescues
same,effect of 18:1-LPA combined with LPAR antagonist on DPP4 activity in GLUTag cells,"DPP4 [4]; 2.5 uM 18:1-LPA 30 minutes, then 10 uM antagonist 2 hours",did not significantly affect
same,effect of LPAR antagonist alone on DPP4 activity in GLUTag cells,"DPP4 [4]; 10 uM antagonist, 2 hours",did not significantly affect
same,effect of antagonist on DPP4 activity in mouse serum,DPP4 [5]; 5 mg/kg i.p.,did not significantly affect; also recorded: lack of effect; also recorded: not significantly affected
same,effect of 18:1-LPA combined with antagonist on DPP4 activity in mouse serum,DPP4 [5]; antagonist 5 mg/kg i.p. then 50 mg/kg 18:1-LPA,did not affect
same,beta-islet cell number,insulin secretion; mice on a high-fat diet,increased
same,prevention of LPA-impaired insulin secretion,insulin secretion,prevented
same,Ki,LPAR1,340 nM
same,Ki,LPAR2,6500 nM
same,Ki,LPAR3,930 nM
same,level at which LPAR3 is antagonized,LPAR3,low micromolar levels
